This assay has as its system 349418-098-R tumor spheroid viability. In words: Anticancer human tumor 349418-098-R patient-derived lung adenocarcinoma cell line growth inhibition. Particulars: spheroids with HUVEC and MSC; for viability, T/C: stronger effect = lower value. The source says:
Multicellular complex tumor spheroid response to DNA repair inhibitors in combination with DNA-damaging drugs
This study explores the anticancer activities of DNA-damaging drugs and inhibitors of DNA damage repair, both as single agents and in combinations. Complex tumor spheroids comprised of malignant cells, endothelial cells and mesenchymal stem cells served as an in vitro model for human solid tumors. This model system incorporates physiologically relevant features and patient-derived or established malignant cell lines with clinically relevant genetic alterations from many tumor types. Twenty-six patient-derived or established malignant cell lines were evaluated representing sarcoma, melanoma, small cell lung cancer (SCLC), non-small cell lung cancer (NSCLC), as well as bladder, ovarian and pancreatic cancers. The concentration ranges selected for each drug and investigational agent were based upon clinically achievable concentrations if the clinical Cmax of the agent was known.
Compounds. The drugs and compounds olaparib (NSC753686), talazoparib (NSC767125), berzosertib (NSC777718), elimusertib (NSC800525), nedisertib (NSC802822), VX-984 (NSC792969), AZD-1390 (NSC803789), temozolomide (NSC362856), topotecan (NSC609699), trabectedin (NSC813783), staurosporine (NSC755774), and gemcitabine (NSC613327) were obtained from the National Cancer Institute (NCI) Developmental Therapeutics Program Chemical Repository. The FDA-approved anticancer drug set is available from the Developmental Therapeutics Program at https://dtp.cancer.gov/organization/dscb/obtaining/available_plates.htm. […] The stock solutions were prepared in dimethyl sulfoxide (DMSO, Sigma-Aldrich, St. Louis, MO, cat. D2650) at 400-fold the tested concentration and stored at -70 degrees C. Prior to their use, the stock solutions were diluted in fresh medium and the final DMSO concentration in the assay was 0.25% (v/v). All drugs and investigational agents were tested over a range starting from a high concentration at or near the clinical Cmax and decreasing in half-log increments. If the clinical Cmax for an agent had not been determined, the highest concentration tested was 10 microM.
Cell Lines. The patient-derived cancer cell (PDC) lines: 156681-154-R-J1-PDC, 283228-195-R-J1-PDC, 287954-098-R-J1-PDC, 292921-168-R-J2-PDC, 349418-098-R-PDC, 425362-245-T-J1-PDC, 556581-035-R-J1-PDC, and BL0293-F563-PDC were received from the NCI Patient-Derived Models Repository (PDMR, https://pdmr.cancer.gov). The established cell lines HS-SY-2 (RRID:CVCL_8719), MPNST, and SYO-1 (RRID:CVCL_7146) were obtained from the Sloan Kettering Institute. The alveolar soft parts sarcoma cell line ASPS-1 (RRID:CVCL_S738) was established at the NCI and grown from internal seed stocks. The following established cell lines were purchased from the American Type Culture Collection (ATCC, Manassas, VA): G-401 (ATCC, cat. CRL-1441, RRID:CVCL_0270), SW982 (ATCC, cat. HTB-93, RRID:CVCL_1734), VA-ES-BJ (ATCC, cat. CRL-2138, RRID:CVCL_1785), NCI-H719 (ATCC, cat. CRL-5837, RRID:CVCL_1582), NCI-H196 (ATCC, cat. CRL-5823, RRID:CVCL_1509), NCI-H841 (ATCC, cat. CRL-5845, RRID:CVCL_1595), NCI-H1618 (ATCC, cat. CRL-5879, RRID:CVCL_1480), NCI-H1876 (ATCC, cat. CRL-5902, RRID:CVCL_1503), DMS 114 (ATCC, cat. CRL-2066; RRID:CVCL_1174), NCI-H211 (ATCC, cat. CRL-5824; RRID:CVCL_1529), and SW 1271 (ATCC, cat. CRL-2177, RRID:CVCL_1716). The small cell lung cancer cell line COR-L88 was purchased from Sigma-Aldrich (cat. 92031917-1VL, RRID:CVCL_1141). The non-small cell lung cancer cell lines NCI-H226 (RRID:CVCL_1544) and NCI-H322M (RRID:CVCL_1557) were established at the NCI and grown from internal seed stocks. Pooled donor human umbilical vein endothelial cells (HUVEC, Lonza, cat. CC-2519) and human mesenchymal stem cells (hMSC, Lonza, cat. PT-2501) were purchased from Lonza (Walkersville, MD).
Cell Culture. All cells were maintained in an incubator at 37 degrees C and 5% CO2 with 95% humidity. […]

pIC50: −log10 of the molar value.
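Also: spheroids exposed to compound for 7 days before measurement.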
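For viability, T/C in this document: percent of vehicle control viability with 100% = DMSO-treated spheroids.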

As a reminder, the pIC50 is the negative decadic logarithm of the IC50, by convention in mol/L. By viability, T/C is commonly meant the result in the treated group divided by that in the control group, in per cent. With `CNCc1ccc(-c2cc(-c3nc(-c4ccc(S(=O)(=O)C(C)C)cc4)cnc3N)on2)cc1` + CC[C@@]1(O)C(=O)OCc2c1cc1n(c2=O)Cc2cc3c(CN(C)C)c(O)ccc3nc2-1, the pIC50 was 6.69 (curve of first compound, second compound 0.003 µM); 6.80 (curve of first compound, second compound 0.00949 µM); 6.83 (curve of first compound, second compound 0.03 µM); > 8.02 (curve of first compound, second compound 0.0949 µM); > 8.02 (curve of first compound, second compound 0.3 µM). Moreover, the viability, T/C is, setting by setting: (second compound 0.003 µM, first compound 0.00949 µM) 106%; (second compound 0.003 µM, first compound 0.03 µM) 96.8%; (second compound 0.003 µM, first compound 0.0949 µM) 95%; (second compound 0.003 µM, first compound 0.3 µM) 26.4%; (second compound 0.003 µM, first compound 0.949 µM) 6.42%; (second compound 0.003 µM, first compound 3 µM) 1.25%. In addition, the viability, T/C was 103% (second compound 0.00949 µM, first compound 0.00949 µM); 96.3% (second compound 0.00949 µM, first compound 0.03 µM); 78.2% (second compound 0.00949 µM, first compound 0.0949 µM); 15.9% (second compound 0.00949 µM, first compound 0.3 µM); 6.27% (second compound 0.00949 µM, first compound 0.949 µM); 0.63% (second compound 0.00949 µM, first compound 3 µM). In addition, the viability, T/C by setting is: (second compound 0.03 µM, first compound 0.00949 µM) 89.1%; (second compound 0.03 µM, first compound 0.03 µM) 83.9%; (second compound 0.03 µM, first compound 0.0949 µM) 74.5%; (second compound 0.03 µM, first compound 0.3 µM) 10.1%; (second compound 0.03 µM, first compound 0.949 µM) 3.96%; (second compound 0.03 µM, first compound 3 µM) 0.78%. For the same compound, the viability, T/C is 25.5% (second compound 0.0949 µM, first compound 0.00949 µM); 22% (second compound 0.0949 µM, first compound 0.03 µM); 12.8% (second compound 0.0949 µM, first compound 0.0949 µM); 4.56% (second compound 0.0949 µM, first compound 0.3 µM); 3.43% (second compound 0.0949 µM, first compound 0.949 µM); 0.31% (second compound 0.0949 µM, first compound 3 µM). The viability, T/C by setting is: (second compound 0.3 µM, first compound 0.00949 µM) 3.32%; (second compound 0.3 µM, first compound 0.03 µM) 4.32%; (second compound 0.3 µM, first compound 0.0949 µM) 3.68%; (second compound 0.3 µM, first compound 0.3 µM) 3.02%; (second compound 0.3 µM, first compound 0.949 µM) 2.18%; (second compound 0.3 µM, first compound 3 µM) 0.36%.

In the case of `Cn1nnc2c(C(N)=O)ncn2c1=O`, the viability, T/C is, setting by setting: (compound 1 µM) 101% [middle of 10 runs]; (compound 3.16 µM) 101% [middle of 10 runs]; (compound 10 µM) 100% [middle of 10 runs]; (compound 31.6 µM) 102% [middle of 10 runs]; (compound 100 µM) 103% [middle of 10 runs]. For the same compound, the pIC50 (compound alone, run of 10/17/2019) was < 4.00.
